From the supplement of paper PMC10307832

Assays:
Experiment in all cases: relative viability (nuclei count vs DMSO), 5 days (fraction); higher = more cells survive
[1] = test system: NCI-H596
Method in brief: (§1)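 Lung cancer cell lines were pin-tool dosed in 1536-well plates on the day after seeding, with either a lone drug or a fixed anchor-drug dose plus five library-drug doses (not always all listed) in √10 steps. Nuclei were counted on 4× images after 5 days. Relative viability is the ratio of treated-well to vehicle-well nuclei counts, with each value a median of duplicate plates.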

[2] = test system: NCI-H358
Method in brief: as §1

[3] = test system: LC-2-ad
Method in brief: as §1

[4] = test system: NCI-H650
Method in brief: as §1

[5] = test system: LXF-289
Method in brief: as §1

[6] = test system: NCI-H838
Method in brief: as §1

[7] = test system: SK-MES-1
Method in brief: as §1

[8] = test system: BEN
Method in brief: as §1

[9] = test system: NCI-H1944
Method in brief: as §1

[10] = test system: NCI-H2342
Method in brief: as §1

[11] = test system: LK-2
Method in brief: as §1

[12] = test system: NCI-H661
Method in brief: as §1

[13] = test system: ChaGo-K-1
Method in brief: as §1

[14] = test system: LU99A
Method in brief: as §1

[15] = test system: NCI-H2087
Method in brief: as §1

[16] = test system: NCI-H1666
Method in brief: as §1

[17] = test system: NCI-H1355
Method in brief: as §1

[18] = test system: NCI-H1975
Method in brief: as §1

[19] = test system: LCLC-97TM1
Method in brief: as §1

[20] = test system: NCI-H1651
Method in brief: as §1

[21] = test system: PC-3 [JPC-3]
Method in brief: as §1

SMILES: Cc1sc2c(c1C)C(c1ccc(Cl)cc1)=N[C@@H](CC(=O)OC(C)(C)C)c1nnc(C)n1-2 [JQ1] + CCNC(=O)c1noc(-c2cc(C(C)C)c(O)cc2O)c1-c1ccc(CN2CCOCC2)cc1 [Luminespib] (partner 0.01 µM)
- relative viability ([1]; first compound 0.04 µM): 1.09
- relative viability ([1]; first compound 0.1265 µM): 0.769
- relative viability ([1]; first compound 0.4 µM): 0.495
- relative viability ([1]; first compound 1.265 µM): 0.344
- relative viability ([1]; first compound 4 µM): 0.287
- relative viability ([2]; first compound 0.04 µM): 0.305
- relative viability ([2]; first compound 0.1265 µM): 0.398
- relative viability ([2]; first compound 0.4 µM): 0.401
- relative viability ([2]; first compound 1.265 µM): 0.385
- relative viability ([2]; first compound 4 µM): 0.27
- relative viability ([3]; first compound 0.04 µM): 0.892
- relative viability ([3]; first compound 0.1265 µM): 0.58
- relative viability ([3]; first compound 0.4 µM): 0.576
- relative viability ([3]; first compound 1.265 µM): 0.395
- relative viability ([3]; first compound 4 µM): 0.331
- relative viability ([4]; first compound 0.04 µM): 0.743
- relative viability ([4]; first compound 0.1265 µM): 0.7
- relative viability ([4]; first compound 0.4 µM): 0.546
- relative viability ([4]; first compound 1.265 µM): 0.203
- relative viability ([4]; first compound 4 µM): 0.212
- relative viability ([5]; first compound 0.04 µM): 0.675
- relative viability ([5]; first compound 0.1265 µM): 0.601
- relative viability ([5]; first compound 0.4 µM): 0.597
- relative viability ([5]; first compound 1.265 µM): 0.495
- relative viability ([5]; first compound 4 µM): 0.541
- relative viability ([6]; first compound 0.04 µM): 0.289
- relative viability ([6]; first compound 0.1265 µM): 0.288
- relative viability ([6]; first compound 0.4 µM): 0.222
- relative viability ([6]; first compound 1.265 µM): 0.161
- relative viability ([6]; first compound 4 µM): 0.144
- relative viability ([7]; first compound 0.04 µM): 0.756
- relative viability ([7]; first compound 0.1265 µM): 0.581
- relative viability ([7]; first compound 0.4 µM): 0.317
- relative viability ([7]; first compound 1.265 µM): 0.163
- relative viability ([7]; first compound 4 µM): 0.173
- relative viability ([8]; first compound 0.04 µM): 0.259
- relative viability ([8]; first compound 0.1265 µM): 0.329
- relative viability ([8]; first compound 0.4 µM): 0.379
- relative viability ([8]; first compound 1.265 µM): 0.126
- relative viability ([8]; first compound 4 µM): 0.169
- relative viability ([9]; first compound 0.04 µM): 0.73
- relative viability ([9]; first compound 0.1265 µM): 0.632
- relative viability ([9]; first compound 0.4 µM): 0.451
- relative viability ([9]; first compound 1.265 µM): 0.37
- relative viability ([9]; first compound 4 µM): 0.353
- relative viability ([10]; first compound 0.04 µM): 0.633
- relative viability ([10]; first compound 0.1265 µM): 0.569
- relative viability ([10]; first compound 0.4 µM): 0.8
- relative viability ([10]; first compound 1.265 µM): 0.739
- relative viability ([10]; first compound 4 µM): 0.539
- relative viability ([11]; first compound 0.04 µM): 0.188
- relative viability ([11]; first compound 0.1265 µM): 0.157
- relative viability ([11]; first compound 0.4 µM): 0.143
- relative viability ([11]; first compound 1.265 µM): 0.142
- relative viability ([11]; first compound 4 µM): 0.136
- relative viability ([12]; first compound 0.04 µM): 0.971
- relative viability ([12]; first compound 0.1265 µM): 0.968
- relative viability ([12]; first compound 0.4 µM): 1.01
- relative viability ([12]; first compound 1.265 µM): 0.646
- relative viability ([12]; first compound 4 µM): 0.593
- relative viability ([13]; first compound 0.04 µM): 0.77
- relative viability ([13]; first compound 0.1265 µM): 0.503
- relative viability ([13]; first compound 0.4 µM): 0.452
- relative viability ([13]; first compound 1.265 µM): 0.322
- relative viability ([13]; first compound 4 µM): 0.285
- relative viability ([14]; first compound 0.04 µM): 0.285
- relative viability ([14]; first compound 0.1265 µM): 0.246
- relative viability ([14]; first compound 0.4 µM): 0.266
- relative viability ([14]; first compound 1.265 µM): 0.173
- relative viability ([14]; first compound 4 µM): 0.179
- relative viability ([15]; first compound 0.04 µM): 0.122
- relative viability ([15]; first compound 0.1265 µM): 0.171
- relative viability ([15]; first compound 0.4 µM): 0.173
- relative viability ([15]; first compound 1.265 µM): 0.129
- relative viability ([15]; first compound 4 µM): 0.178
- relative viability ([16]; first compound 0.04 µM): 1.03
- relative viability ([16]; first compound 0.1265 µM): 0.916
- relative viability ([16]; first compound 0.4 µM): 0.908
- relative viability ([16]; first compound 1.265 µM): 0.669
- relative viability ([16]; first compound 4 µM): 0.64
- relative viability ([17]; first compound 0.04 µM): 0.715
- relative viability ([17]; first compound 0.1265 µM): 0.715
- relative viability ([17]; first compound 0.4 µM): 0.453
- relative viability ([17]; first compound 1.265 µM): 0.359
- relative viability ([17]; first compound 4 µM): 0.339
- relative viability ([18]; first compound 0.04 µM): 0.212
- relative viability ([18]; first compound 0.1265 µM): 0.137
- relative viability ([18]; first compound 0.4 µM): 0.162
- relative viability ([18]; first compound 1.265 µM): 0.206
- relative viability ([18]; first compound 4 µM): 0.172
- relative viability ([19]; first compound 0.04 µM): 0.81
- relative viability ([19]; first compound 0.1265 µM): 0.762
- relative viability ([19]; first compound 0.4 µM): 0.768
- relative viability ([19]; first compound 1.265 µM): 0.356
- relative viability ([19]; first compound 4 µM): 0.3
- relative viability ([20]; first compound 0.04 µM): 0.865
- relative viability ([20]; first compound 0.1265 µM): 0.997
- relative viability ([20]; first compound 0.4 µM): 0.768
- relative viability ([20]; first compound 1.265 µM): 0.369
- relative viability ([20]; first compound 4 µM): 0.375
- relative viability ([21]; first compound 0.04 µM): 0.82
- relative viability ([21]; first compound 0.1265 µM): 0.716
- relative viability ([21]; first compound 0.4 µM): 0.614
- relative viability ([21]; first compound 1.265 µM): 0.443
- relative viability ([21]; first compound 4 µM): 0.302
